Legend:
Format in all cases: in vivo, rat
[1] = test system: obese Zucker Diabetic Fatty (ZDF) rats; test: Pituitary LH content by radioimmunoassay in animal model of human infertility; settings: treated obese ZDF rats, oral 10 mg/kg/day, end of study; obese control 8.1±0.6, lean 6.3±0.6; p<0.05 vs control
Method: (§1) Obese Zucker Diabetic Fatty males and females as well as fertile lean males and females were put into individual cages and fed with Purina 5008 (6.5% fat). At 6.5 weeks of life, obese rats were randomized into 3 groups: • 1. Control group—obese ZDF rats (n=8) treated with vehicle. • 2. Once-daily treatment group—obese ZDF rats (n=8) given the compound of Example 1B orally once daily (10 mg/kg/day). • 3. Twice-daily treatment group—obese ZDF rats (n=8) given the compound of Example 1B orally twice daily (10 mg/kg/day). Methods
(§2) Blood and pituitaries of lean and obese rats were collected at the end of the study. Pituitary LH and plasma testosterone concentrations were measured by radioimmunoassay. Estrous cyclicity was evaluated by observation of vaginal smear.

[2] = test system: obese Zucker Diabetic Fatty (ZDF) male rats; test: Plasma testosterone by radioimmunoassay in animal model of human infertility; settings: treated obese ZDF males, oral 10 mg/kg/day, end of study; obese 1145±328, lean 2410±239; NS vs lean
Method: as §1, §2

[3] = test system: obese Zucker Diabetic Fatty (ZDF) female rats; test: Estrous cyclicity by observation of vaginal smear in animal model of human infertility; settings: oral 10 mg/kg/day, untreated obese females had abnormal cyclicity vs lean
Method: as §1, §2

CC(C)(C)[C@H](N)C(=O)N1CCC[C@H]1C#N [Example 1B, (2S)-N-((2′S)-2′-amino-3′,3′-dimethylbutanoyl)pyrrolidine-2-carbonitrile]
Pituitary LH content [1]: 5.2±0.4 μg/pituitary | Plasma testosterone level [2]: 2390 ± 759 pg/mL | Estrous cyclicity [3]: normalised estrous cyclicity
